Literature values as cited in patent EP0759941B1, “HETERODIMER POLYPEPTIDEIMMUNOGEN CARRIER COMPOSITION AND METHOD FOR THEIR USE” (S.P.I. SYNTHETIC PEPTIDES INCORPORATED, priority 1994, dated 1995).

Tested on: primed (human) donors
Details: recognized by all primed (human) donors; cited from earlier work

Row | Substance | immunogenicity (recognition by primed donors irrespective of MHC haplotypes)
1 | TT2: tetanus toxoid residues 830-846; SEQ ID NO:12; T-cell antigen (QYIKANSKFIGITELKK; UniProt P04958 830-846, looked up, fragment) [tetanus toxoid residues 830-846; T-cell antigen] | universally immunogenic
2 | TT3: tetanus toxoid residues 947-967; SEQ ID NO:14 (FNNFTVSFWLRVPKVSASHLE; UniProt P04958 947-967, looked up, fragment) | universally immunogenic
